Columns and labels:
Acetylcholinesterase = Acetylcholinesterase (Homo sapiens, UniProt P22303)
Description: In vitro inhibition of Acetylcholinesterase from human erythrocytes

Cholinesterase = Cholinesterase (Homo sapiens, UniProt P06276)
Description: In vitro inhibition of Butyrylcholinesterase from human erythrocytes

[1] = Safety index is the ratio of acute lethality LD50 to extracellular AchE ED50.; format: toxicity; settings: read-out: Safety index
Rattus norvegicus [2] = species on record: Rattus norvegicus; experiment: animal or person
Description: ED50 for salivation was defined as the dose required to produce a level 2 rating on a 0-4 point scale after treatment.

Rattus norvegicus [3] = species on record: Rattus norvegicus; experiment: animal or person; settings: 3 h

Chain of Acetylcholinesterase (P22303 whole entry): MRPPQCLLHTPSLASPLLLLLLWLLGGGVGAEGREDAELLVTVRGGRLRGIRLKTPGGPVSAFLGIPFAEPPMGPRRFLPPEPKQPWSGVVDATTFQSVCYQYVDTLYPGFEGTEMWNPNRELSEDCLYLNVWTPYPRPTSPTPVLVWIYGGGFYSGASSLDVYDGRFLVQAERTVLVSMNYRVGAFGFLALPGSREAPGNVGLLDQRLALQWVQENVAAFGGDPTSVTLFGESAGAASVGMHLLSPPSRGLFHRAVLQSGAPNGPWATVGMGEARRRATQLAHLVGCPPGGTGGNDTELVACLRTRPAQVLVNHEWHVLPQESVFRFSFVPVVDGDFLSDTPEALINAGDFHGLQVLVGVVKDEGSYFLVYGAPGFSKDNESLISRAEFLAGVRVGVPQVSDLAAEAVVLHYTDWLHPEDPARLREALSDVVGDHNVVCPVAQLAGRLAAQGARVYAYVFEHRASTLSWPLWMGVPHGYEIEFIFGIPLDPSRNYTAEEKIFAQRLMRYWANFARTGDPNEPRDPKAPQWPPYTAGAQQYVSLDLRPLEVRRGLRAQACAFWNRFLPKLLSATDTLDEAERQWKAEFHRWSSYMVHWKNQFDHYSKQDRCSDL
Chain of Cholinesterase (P06276 whole entry): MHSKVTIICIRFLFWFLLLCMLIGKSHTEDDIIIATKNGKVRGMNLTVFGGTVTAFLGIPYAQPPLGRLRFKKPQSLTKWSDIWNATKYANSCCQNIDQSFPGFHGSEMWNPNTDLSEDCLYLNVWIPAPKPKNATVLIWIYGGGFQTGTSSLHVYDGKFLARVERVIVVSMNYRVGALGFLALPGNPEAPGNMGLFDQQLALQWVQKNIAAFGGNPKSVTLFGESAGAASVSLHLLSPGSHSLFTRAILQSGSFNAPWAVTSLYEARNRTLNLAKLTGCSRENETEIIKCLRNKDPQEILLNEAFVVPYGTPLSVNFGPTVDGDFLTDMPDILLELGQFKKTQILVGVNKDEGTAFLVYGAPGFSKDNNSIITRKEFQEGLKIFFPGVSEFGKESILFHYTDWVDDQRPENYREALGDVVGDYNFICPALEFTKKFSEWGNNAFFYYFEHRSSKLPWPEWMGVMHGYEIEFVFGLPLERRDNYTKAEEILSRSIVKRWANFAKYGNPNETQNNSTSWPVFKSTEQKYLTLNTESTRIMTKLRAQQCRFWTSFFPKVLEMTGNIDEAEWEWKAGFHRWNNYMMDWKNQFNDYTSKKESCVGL
Description for in vivo: LD50 for actute lethality is defined as the dose that resulted in the death of 50% of the animals 1 hr after treatment.

SMILES | IC50 (Acetylcholinesterase) [µM] | IC50 (Cholinesterase) [µM] | selectivity ratio [1] | LD50 at 1 h (in vivo) [mg/kg] | ED50 (Rattus norvegicus [2]) [mg/kg] | ED50 (Rattus norvegicus [3]) [mg/kg]
O=C1Cc2c(ccc3c(CCC4CCN(Cc5ccccc5)CC4)noc23)N1 | 0.0036 | 2.2 | – | – | – | –
O=C1Cc2cc3onc(CCC4CCN(Cc5ccccc5)CC4)c3cc2N1 | 0.00095 | 3.9 | – | – | – | –
CC(=O)Nc1ccc2c(CCC3CCN(Cc4ccccc4)CC3)noc2c1 | – | 9 | – | – | – | –
O=C1CCc2cc3c(CCC4CCN(Cc5ccccc5)CC4)noc3cc2N1 | 0.00057 | 4 | – | – | – | –
O=C(O)/C=C\C(=O)O.O=C1Cc2cc3c(CCC4CCN(Cc5ccccc5)CC4)noc3cc2N1 [ICOPEZIL MALEATE] | 0.00033 | 7.2 | 105 | 42 | 26 | 0.4
CN1C(=O)Cc2cc3c(CCC4CCN(Cc5ccccc5)CC4)noc3cc21 | 0.00048 | 4.5 | – | – | – | –

From ChEMBL document CHEMBL1128477, “5,7-dihydro-3-[2-[1-(phenylmethyl)-4-piperidinyl]ethyl]-6H- pyrrolo[3,2-f]-1,2-benzisoxazol-6-one: a potent and centrally-selective inhibitor of acetylcholinesterase with an improved margin of safety” (J Med Chem, 1995)
